Literature values, collected in patent publication US20130122091A1, “POLYDEOXYRIBONUCLEOTIDE-BASED COMPOSITIONS AND THEIR METHODS OF USE” (MEDESTEA INTERNAZIONALE SPA, priority 2010, published 2013).

Experiments:
[1] = PDRN-treated survivors, versus 2% of non-PDRN-treated survivors

polydeoxyribonucleotides [PDRNs]
Resolution of the serious hepatic veno-occlusive disease [1]: 42% | increase in the number of fibroblasts (fibroblasts): 35% | increase in the production of all the dermal matrix components (fibroblasts): 30%
